Test results taken from patent US9212196B2, “Hypophosphorous acid derivatives having antihyperalgic activity and biological applications thereof” (UNIVERSITE PARIS DESCARTES, priority 2011, dated 2015).

Test system: CCI neuropathic pain model
Assay: Paw pressure test in CCI neuropathic pain model in rats
Format: in vivo, rat
Settings: FIG. 7 legend, model not named
Experimental: After the induction period of the neuropathy or inflammation, various amounts of derivative 2 dissolved in serum have been injected in rats, (from 0.5 to 15 μg/rat, i.t. from 1 to 30 mg/kg, i.p.) on time-course of vocalization threshold to paw pressure. The results obtained on healthy animals are given on FIG. 1. They are expressed by the time course curves of means+/-SEM of vocalization threshold in grams (n=6-8 rats per group) (A) or by the area under the curve (B). Morphine (10 μg/rat, i.t.) is used as a positive control. […] FIG. 4 illustrates the effect of intrathecal administration of derivative 2 on the vocalization threshold to paw pressure in the CCI neuropathic pain model (effect of derivative 2 (1, 5, 10 μg/rat, i.t.) on time-course of vocalization threshold to paw pressure). Gabapentin (100 mg/kg, p.o.) is used as a positive control. […] The effect of intrathecal administration of derivative 2 (10 μg/rat, i.t.) on the vocalization threshold to paw pressure in the CCI neuropathic pain model after mGluR4 or mismatch ODN treatment is illustrated by FIG. 4. […] The animals were submitted to the paw pressure test previously described by Randall and Selitto (1957). Nociceptive thresholds, expressed in grams (g), were measured with a Ugo Basile analgesimeter (Apelex, tip diameter of the probe: 1 mm, weight: 30 g) by applying an increasing pressure to the right hind paw of rats until a squeak (vocalization threshold) was obtained (cut-off was 750 g except carrageenan treated animals for which the cut-off was 500 g). The treatments were done after the measurement of two consecutive stable vocalization threshold values and their effects were assessed 15, 30, 45, 60, 90, and 120 min after. Unilateral peripheral mononeuropathy was induced according to the method described by Bennett and Xie (1988). Briefly, after determining vocalization thresholds, rats were anesthetized with sodium pentobarbital (50 mg/kg i.p.) and four chromic gut (5-0) ligatures were tied loosely (with about 1-mm spacing) around the right common sciatic nerve. The nerve was constricted to a barely discernible degree, so that circulation through the epineurial vasculature was not interrupted. Only animals presenting a decrease ≧15% of the presurgery value of vocalization threshold were selected, i.e., 90% of ligated animals (presurgery value: 379±7 g, pre-drug value: 188±7 g). Intrathecal injections were performed, under isoflurane anesthesia (4% induction, 2% maintenance), as previously described (Mestre et al., 1994). Briefly, the anesthetized rat was held in one hand by the pelvic girdle and a 25-gauge X1-inch needle connected to a 25 μL Hamilton syringe was inserted into the subarachnoidal space between lumbar vertebrae L5 and L6, until a tail flick was elicited. The syringe was held in position for few seconds after the injection of a volume of 10 μL/rat. AS ODN was designed based on rat mGluR4 sequence in regions lacking known splice variants. […]. One ODN with scramble arrangement in the base composition compared to the 18-mer specific as was used as control for sequence-independent effects of ODN treatments. […] Pain scores were determined using standard methods in strict conformity with ethical standards (Zimmermann M., 1983) before ODN treatments and then on day 4 in the afternoon. […]

Compound: NC1(C(=O)O)C[C@H](C(=O)O)[C@H](C(=O)O)C1 (stereo partly shown) [ACPT-I, reference compound]
- mechanical antihyperalgesia after knockdown of spinal mGlu4 expression by antisense oligonucleotides: reduces mechanical antihyperalgesia
